# From patent US20230181472A1, “PROCESS OF MAKING IVABRADINE HYDROCHLORIDE DRUG PRODUCT” (Amgen Inc., priority 2018, published 2023)
# Structures can show the parent of a compound that is named as a salt.
# Test: FT-Raman peak width (FWHM) at 705 cm^−1 as a measure of amorphous ivabradine hydrochloride
# Assay type: physicochemical
# Conditions: peak heights normalized at 705 cm^−1, broader peak = more amorphous content
# Source text: During characterization of the ivabradine hydrochloride chrystalline forms, Fourier Transform Raman Spectroscopy was used to evaluate different peak shapes. A Thermo Scientific Nicolet NXR FT-Raman equipped with liquid nitrogen cooled germanium (Ge) detector (Thermo Scientific) was used for FT-Raman signal collection. Peak broadening was most defined at a Raman shift of 705 cm^−1. The peak heights were normalized at 705 cm^−1 and the width of the peak was characterized as full width at half maximum (FWHM). Table 3 highlights the FWHM of pure tetrahydrate and amorphous drug substance with an approximate doubling of peak width for purely amorphous ivabradine hydrochloride. […] Modifying the process conditions as described herein produced FWHM values of 10.3 and 9.6 cm^−1 for the 5 mg and 7.5 mg drug products respectively showing the significant reduction in the amount of amorphous ivabradine hydrochloride present in the drug product.
smiles,measurement,value
COc1cc2c(cc1OC)CC(=O)N(CCCN(C)C[C@H]1Cc3cc(OC)c(OC)cc31)CC2 [Ivabradine hydrochloride amorphous (pure)],FWHM (cm^−1) of 705 cm^−1 peak,16.3 cm⁻¹
COc1cc2c(cc1OC)CC(=O)N(CCCN(C)C[C@H]1Cc3cc(OC)c(OC)cc31)CC2 [Ivabradine hydrochloride tetrahydrate (pure)],FWHM (cm^−1) of 705 cm^−1 peak,8.4 cm⁻¹
